US11987579B2 (Duke University, priority 2018, dated 2024)

System: CCD841Co colonic cells
Assay: Assessment of oxygen consumption rate (OCR), Seahorse XFp
Type: cell-based
Details: 1 μM FCCP, cells treated with DMSO control media
Experimental: Colonic epithelial CCD841Co cells were plated in Seahorse XFp 8-well miniplates at 8000 cells/well and allowed to attach overnight at 37° C. in a 5% CO2 incubator. Polarographic analysis of OCR was performed using Seahorse XF Analyzer (Agilent Technologies, Santa Clara, Calif.) and a Seahorse XFp Cell Mito Stress Test Kit (Agilent Technologies, catalog number 103010-100). […] Data were analyzed by the software Wave (Version 2.3.0.20, Agilent Technologies, Santa Clara, Calif.).

Q: `N#CC(C#N)=NNc1ccc(OC(F)(F)F)cc1` [FCCP] was tested. Which “oxygen consumption rate after control compound addition” value did it give?
A: Its value is “increases oxygen consumption rate”.
